# Experimental data taken from patent US20210244686A1, “Novel Systems And Methods For The Therapeutic Use of Cannabinoids or Cannabinoid Analogs to Increase The Lipid Order of Cholesterol Containing Cell Membranes” (The Regents of the University of Colorado a body corporate, priority 2018, published 2021).
# What was measured:
# [1] = test system: SK-N-BE(2) cells; assay: Lipidomics of total lipid abundance; format: cell-based, human
# Source text: To investigate the effect of CBD on cholesterol storage, the present inventors performed follow up experiments to determine the total cellular amounts of small molecule markers of cholesterol storage as a function of CBD exposure. The inventors detected accumulation of multiple species of cholesteryl esters with diverse chain length and degree of unsaturation in the acyl chain (FIG. 4A).
# Since this esterification requires acyl CoA reactants, the inventors surveyed our dataset for evidence of fatty acid utilization.
# Thus, the present inventors found multiple lines of evidence consistent with activation of cholesterol esterification in the CBD response. To further support the claim that CBD elicits cholesterol storage, the present inventors used live cell confocal microscopy of SK-N-BE(2) cells stained with both fluorescent cholesterol (22-NBD-Cholesterol) and the lipid droplet dye nile red (FIG. 4E) to quantify the number and size of lipid droplets. […] Altogether, these combined experiments highlight that the CBD response in cells includes activation of cholesterol esterification and storage.
# Extraction of cholesterol, precursors, free fatty acids, cholesteryl esters, and phospho lipids were performed in the following manner. SK-N-BE(2) cells in 10 cm dishes were washed with 10 mL PBS twice and then cells were scraped and pelleted at 400 rcf for 2 minutes. Cell pellets were resuspended in 100% methanol at 4° C. and sonicate at 70% power in 10 pulses, 5 seconds on/5 seconds off. The resulting lysate was rotated for 60 minutes at room temperature, followed by centrifugation for 20 min at 4° C. (16,100 rcf). Subcellular fractionation of organelles from intact SK-N-BE(2) cells was done in the following manner to assess subcellular CBD distribution. Cells in 10 cm culture dishes were harvest by washing twice with 10 mL PBS at room temperature, followed by trypsinization using a cell culture grade Trypsin/EDTA solution (ThermoFisher). Trypsinized cells were quenched by addition of 2 mL 10% FBS containing DMEM and cells were pelleted by centrifugation for 2 min at 4° C. (200 rcf). Cell pellets were wash one time with 10 mL PBS, and resuspended in 1 mL Tween20 Buffer (1×PBS, 0.05% Tween20, 5 mM EDTA). This lysate was subjected to mechanical disruption using a 1 mL glass Dounce homogenizer, 10 full passes at 4° C. Nuclei was pelleted from homogenate by centrifugation for 5 min at 4° C. (2,000 rcf). Supernatant was separated and insoluble ER membranes were pelleted by centrifugation for 10 min at 4° C. (4,000 rcf). Supernatant was separated and insoluble plasma membranes were pelleted by centrifugation for 10 min at 4° C. (16,000 rcf). […]
# [2] = FRAP of NBD-cholesterol in synthetic membrane monolayers; settings: PC SUV derived monolayers, 20% cholesterol, 2% NBD-cholesterol
# Source text: CBD's ability to affect cholesterol orientation in both synthetic and cell derived ER membranes implies that CBD may contribute to increased lipid order. The ability of cholesterol oxidase assays to reveal alterations in lipid order has been previously reported in studies noting that cholesterol oxidase can preferentially target caveolar domains, which are ordered lipid domains. Another hallmark of lipid order is a decrease in lateral diffusion of lipids. As a result, the present inventors aimed to measure CBD's ability to perturb the lateral diffusion of fluorescently labelled cholesterol (NBD-cholesterol) in synthetic membranes. The present inventors deposited PC SUVs containing 20% moles of cholesterol and 2% moles NBD-cholesterol on glass-bottom multi-well imaging plates, followed by ultra-sonification to construct fluorescently labelled membrane monolayers. Using these monolayers and confocal microscopy, the inventor's performed fluorescence recovery after photobleaching (FRAP) experiments to measure the kinetics of recovery of fluorescent cholesterol. […] This effect of CBD on lateral diffusion could be rescued with simultaneous treatment with the lipid disordering agent DHA (FIGS. 6G, I). There are two proposed models for how DHA affects cholesterol in membranes. […]
smiles,measurement,setting,value
"C=C(C)[C@@H]1CCC(C)=C[C@H]1c1c(O)cc(CCCCC)cc1O [CBD, cannabidiol]",cholesteryl esters,[1]; CBD 20 μM vs vehicle,accumulation
same,free fatty acid levels,[1]; CBD 20 μM vs vehicle,reduced
same,free phospholipid head-groups,[1]; CBD 20 μM vs vehicle,accumulation
same,phosphatidylcholine and phosphatidylethanolamine species abundance,[1]; CBD treated vs vehicle treated cells,reduced abundance
same,FRAP kinetics (lateral diffusion of fluorescent cholesterol),[2],significantly reduced
